Where two headings read alike, the source gives them in different places. Marks after values point to notes of the source that are not given here.
Legend:
[1] = biological target: T1, alpha-amylase from porcine pancreas (Sus scrofa, UniProt P00690); assay: alpha-amylase inhibition assay (DNSA method); format: biochemical; conditions: for LogIC50: isolated compounds and acarbose, log of IC50 in uM
T1 sequence (P00690 16-511): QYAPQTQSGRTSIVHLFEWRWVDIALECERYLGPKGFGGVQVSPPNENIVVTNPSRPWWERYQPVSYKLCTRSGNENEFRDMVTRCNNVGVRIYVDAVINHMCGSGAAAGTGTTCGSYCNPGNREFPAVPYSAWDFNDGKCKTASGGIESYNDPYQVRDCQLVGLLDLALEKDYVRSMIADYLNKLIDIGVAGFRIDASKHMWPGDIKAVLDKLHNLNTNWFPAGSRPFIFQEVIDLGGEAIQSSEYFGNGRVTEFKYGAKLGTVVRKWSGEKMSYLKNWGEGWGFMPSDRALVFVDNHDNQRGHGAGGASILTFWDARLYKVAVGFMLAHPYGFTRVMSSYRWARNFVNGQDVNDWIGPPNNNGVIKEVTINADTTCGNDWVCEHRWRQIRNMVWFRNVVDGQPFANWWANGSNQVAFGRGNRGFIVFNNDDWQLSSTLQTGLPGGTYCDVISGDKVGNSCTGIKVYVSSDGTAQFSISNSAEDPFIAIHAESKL
Method: Varying concentrations of the pregnane-rich fractions (40–200 μg/ml) and those of the isolated compounds (10–50 μg/ml) were prepared in DMSO. Briefly, 100 μL of the test substance was reacted with 200 μl of alpha-amylase (alpha-amylase from porcine pancreas, EC 3.2.1.1, type VI, Sigma) and 100 μl of […] phosphate buffer (pH 6.9) of 0.02 M sodium phosphate (pH 6.9). Subsequent to incubation for 20 min, 100 μL of 1% starch substrate was added. Blank controls where the enzyme was replaced with the buffer were also prepared alongside. Following incubation of the reaction mixture for 5 min, 500 μl of dinitrosalicylic acid reagent was mixed with the control and the test. These were kept in a water bath at a boiling temperature for 5 min.
The half-maximal inhibitory concentration (IC50) values were determined by fitting inhibition parameters with standard log inhibitor vs. normalized response models using nonlinear regression as described by [Buchwald (2020)].

[2] = test system: albino rats; assay: oral starch tolerance test; format: in vivo; conditions: for PBG / % reduction of AUC / % reduction of PBG / AUC: 3.0 g/kg starch; for PBG / AUC: mean ± SEM n = 4; for % reduction of AUC / % reduction of PBG: vs control; for blood glucose level: oral, starch-challenged rats; for AUC: blood glucose 0-120 min
Method: The animal study was reviewed and approved by the University Ethical Review Committee of the University of Ilorin (Protocol Identification Code: UERC/LSC/183). An oral starch tolerance test was carried out as described in a previous study ([Poovitha and […], 2016]). […] After 10 min, the blood glucose level was estimated (0 min), and the rats were orally administered with 3.0 g/kg starch. Then, the blood glucose level was estimated at 30, 60, and 120 min after the administration using a glucometer. Peak blood glucose (PBG) was determined by observing the blood glucose level during the previously mentioned time intervals, and the area under the curve (AUC) was calculated.

Structure (SMILES) | PBG ([2]; 10 mg/kg oral) | % reduction of AUC ([2]; 10 mg/kg oral) | % reduction of PBG ([2]; 10 mg/kg oral) | blood glucose level ([2]; in words) | LogIC50 [1] | IC50 ([1]; read-out: IC50) | IC50 [1] | further results
C[C@H]1O[C@H](O[C@H]2[C@H](O)[C@@H](O)[C@@H](O[C@H]3[C@H](O)[C@@H](O)C(O)O[C@@H]3CO)O[C@@H]2CO)[C@H](O)[C@@H](O)[C@@H]1N[C@H]1C=C(CO)[C@@H](O)[C@H](O)[C@H]1O (some centres unmarked) [Acarbose, acarbose, reference compound] | 2.85 ± 0.05^ab mmol/L | 7.00% | 20.83% | significant decrease |  |  |  | percentage inhibitory activity on porcine alpha-amylase ([1]; in words, fractions 40–200 μg/ml, compounds 10–50 μg/ml): greatest inhibition effects
CC(O)[C@H]1CC[C@@]2(O)[C@]1(C)[C@H](O)[C@@H](O)[C@@H]1[C@@]3(C)CC[C@H](O)CC3=CC[C@]12O (some centres unmarked) [P1, marsectohexol] | 2.90 ± 0.10^ab mmol/L | 6.36% | 19.44% | significantly reduced | 1.000 | 10 µM |  | AUC ([2]; 10 mg/kg oral): 883.5 ± 19.50 mmol·min/L; AUC ([2]; 20 mg/kg oral): 699.0 ± 48.0 mmol·min/L; PBG ([2]; 20 mg/kg oral): 2.15 ± 0.45^b mmol/L; % reduction of AUC ([2]; 20 mg/kg oral): 25.91%; peak blood glucose (PBG) and area under the curve (AUC) ([2]; 20 mg/kg oral, after starch loading, in words): significantly reduced; blood glucose level ([2]; in words, listed as marsectohexol): significant decrease
CC=C(C)C(=O)OC1C2C3(C)CCC(OC4CC(OC)C(OC5OC(C)C(O)C(OC)C5O)C(C)O4)CC3=CCC2(O)C2(O)CCC(C(C)=O)C2(C)C1OC(=O)C(C)=CC [P2, 3-O-[6-deoxy-3-O-methyl-β-D-allopyranosyl-(1→14)-β-D-oleandropyranosyl]-11,12-di-O-tigloyl-17β-marsdenin] |  |  |  |  | 1.083 |  | 12.1 µM | 
COC1CC(OC2CCC3(C)C(=CCC4(O)C3C(O)C(O)C3(C)C(C(C)=O)CCC43O)C2)OC(C)C1OC1OC(C)C(O)C(OC)C1O [P3, 3-O-[6-deoxy-3-O-methyl-β-D-allopyranosyl-(1→4)-β-D-oleandropyranosyl]-17β-marsdenin] |  |  |  |  | 1.147 |  | 14 µM | 
COC1C(O)C(C)OC(OC2C(O)CC(OC3CCC4(C)C(=CCC5(O)C4C(O)C(O)C4(C)C(C(C)=O)CCC54O)C3)OC2C)C1O [P4, 3-O-[6-deoxy-3-O-methyl-β-D-allopyranosyl-(1→4)-β-D-canaropyranosyl]-17β-marsdenin] |  |  |  |  | 1.137 | 13.7 µM |  | 

From PMC9399641, “Inhibition mechanism of alpha-amylase, a diabetes target, by a steroidal pregnane and pregnane glycosides derived from Gongronema latifolium Benth” (Frontiers in Molecular Biosciences, 2022)
